Assay results reported in the supplement of paper PMC10307832.

How the values were obtained:
Experiment in all cases: relative viability (nuclei count vs DMSO), 5 days (fraction); higher = more cells survive
PAC-1 + Pictilisib = compound: C=CCc1cccc(/C=N/NC(=O)CN2CCN(Cc3ccccc3)CC2)c1O [PAC-1] + CS(=O)(=O)N1CCN(Cc2cc3nc(-c4cccc5[nH]ncc45)nc(N4CCOCC4)c3s2)CC1 [Pictilisib] (partner 1 µM)
Method in brief: (§1)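 Dosing by pin tool came one day after lung cancer cell lines were seeded in 1536-well plates, using either one drug or a fixed anchor-drug dose plus five library-drug doses (not always all listed) in √10 steps. After 5 days, nuclei were counted on 4× images. Relative viability is treated-well nuclei count divided by vehicle-well nuclei count, and values are medians of duplicate plates.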

PAC-1 + Olaparib = compound: C=CCc1cccc(/C=N/NC(=O)CN2CCN(Cc3ccccc3)CC2)c1O [PAC-1] + O=C(c1cc(Cc2n[nH]c(=O)c3ccccc23)ccc1F)N1CCN(C(=O)C2CC2)CC1 [Olaparib] (partner 8 µM)
Method in brief: as §1

Ibrutinib + Lapatinib = compound: C=CC(=O)N1CCC[C@@H](n2nc(-c3ccc(Oc4ccccc4)cc3)c3c(N)ncnc32)C1 [Ibrutinib] + CS(=O)(=O)CCNCc1ccc(-c2ccc3ncnc(Nc4ccc(OCc5cccc(F)c5)c(Cl)c4)c3c2)o1 [Lapatinib] (partner 2 µM)
Method in brief: as §1

BMX-IN-1 + Olaparib = compound: C=CC(=O)Nc1cc(-n2c(=O)ccc3cnc4ccc(-c5ccc(NS(C)(=O)=O)cc5)cc4c32)ccc1C [BMX-IN-1] + O=C(c1cc(Cc2n[nH]c(=O)c3ccccc23)ccc1F)N1CCN(C(=O)C2CC2)CC1 [Olaparib] (partner 8 µM)
Method in brief: as §1

Row | Cell Line | relative viability (PAC-1 + Pictilisib; first compound 0.02 µM) | relative viability (PAC-1 + Pictilisib; first compound 0.06325 µM) | relative viability (PAC-1 + Pictilisib; first compound 0.2 µM) | relative viability (PAC-1 + Pictilisib; first compound 2 µM) | relative viability (PAC-1 + Olaparib; first compound 0.02 µM) | relative viability (PAC-1 + Olaparib; first compound 0.06325 µM) | relative viability (PAC-1 + Olaparib; first compound 0.2 µM) | relative viability (PAC-1 + Olaparib; first compound 2 µM) | relative viability (Ibrutinib + Lapatinib; first compound 0.005 µM) | relative viability (Ibrutinib + Lapatinib; first compound 0.01581 µM) | relative viability (Ibrutinib + Lapatinib; first compound 0.05 µM) | relative viability (Ibrutinib + Lapatinib; first compound 0.1581 µM) | relative viability (Ibrutinib + Lapatinib; first compound 0.5 µM) | relative viability (BMX-IN-1 + Olaparib; first compound 0.02 µM) | relative viability (BMX-IN-1 + Olaparib; first compound 0.2 µM) | relative viability (BMX-IN-1 + Olaparib; first compound 0.6325 µM) | relative viability (BMX-IN-1 + Olaparib; first compound 2 µM)
1 | NCI-H596 | 0.424 | 0.423 | 0.341 | 0.422 | 0.633 | 0.715 | 0.607 | 0.665 | 1.86 | 1.1 | 1.02 | 0.988 | 1.08 | 0.712 | 0.641 | 0.692 | 0.755
2 | NCI-H647 | 0.417 |  | 0.417 | 0.331 | 0.616 | 0.492 | 0.544 | 0.236 | 0.799 | 0.934 | 1.06 | 1.11 | 1.19 | 0.687 | 1.04 | 0.553 | 0.574
3 | NCI-H650 | 1.07 | 0.951 | 0.86 | 0.874 | 0.328 | 0.41 | 0.387 | 0.381 |  | 0.867 |  | 1 | 0.883 | 0.366 | 0.379 | 0.469 | 0.456
4 | NCI-H661 | 0.392 | 0.351 | 0.33 | 0.371 | 0.664 | 0.721 | 0.684 | 0.505 | 0.414 | 0.504 | 0.489 | 0.571 | 0.426 | 0.963 | 0.758 | 0.81 | 0.738
5 | NCI-H727 | 0.338 | 0.525 | 0.453 | 0.283 | 0.753 | 0.715 | 0.568 | 0.68 | 0.734 | 0.735 | 1.2 | 0.496 | 0.852 | 0.555 | 0.642 | 0.703 | 0.688
6 | NCI-H838 | 0.427 | 0.526 | 0.387 | 0.455 | 0.715 | 0.735 | 0.727 | 0.656 | 0.796 | 0.893 | 1 | 0.894 | 1.08 | 0.81 | 0.933 | 0.915 | 0.859
7 | NCI-H1299 | 0.876 | 0.763 | 0.815 | 0.657 | 0.947 | 0.933 | 0.937 | 0.895 | 0.973 | 0.984 | 0.977 | 0.979 | 0.969 | 1.05 | 0.978 | 0.992 | 1.03
8 | NCI-H1355 | 0.386 | 0.475 | 0.393 | 0.492 | 0.78 | 0.693 | 0.724 | 0.74 |  | 0.975 | 1.07 | 0.92 | 0.963 | 0.805 | 0.813 | 0.713 | 0.749
9 | NCI-H1395 | 0.603 | 0.677 | 0.61 | 0.602 | 0.493 | 0.44 | 0.485 | 0.46 | 1.1 | 1.04 | 1.04 | 0.869 | 1.05 | 0.433 | 0.45 | 0.452 | 0.45
10 | NCI-H1437 | 0.495 | 0.474 | 0.415 | 0.391 | 0.606 | 0.632 | 0.555 | 0.471 | 0.799 | 0.677 | 0.775 | 0.604 | 0.893 | 0.662 | 0.647 | 0.692 | 0.664
11 | NCI-H1650 | 0.53 | 0.608 | 0.582 | 0.515 | 0.709 | 0.751 | 0.726 | 0.674 | 0.685 | 0.734 | 0.843 | 0.682 | 0.844 | 0.977 | 0.914 | 0.762 | 0.77
12 | NCI-H1651 | 0.579 | 0.647 | 0.59 | 0.535 | 0.149 | 0.2 | 0.181 | 0.193 | 0.699 | 0.756 | 0.796 | 0.723 | 0.906 | 0.175 | 0.182 | 0.18 | 0.183
13 | NCI-H1666 | 0.501 | 0.398 | 0.358 | 0.427 | 0.688 | 0.745 | 0.75 | 0.729 | 0.722 | 0.583 | 0.814 | 0.749 | 0.761 | 0.753 | 0.806 | 0.631 | 0.769
14 | NCI-H1703 | 0.245 | 0.267 | 0.249 | 0.205 | 0.376 | 0.401 | 0.388 | 0.341 |  |  | 1.06 | 1.16 | 0.684 | 0.486 | 0.368 | 0.284 | 0.336
15 | NCI-H1734 | 0.446 | 0.448 | 0.431 | 0.468 | 0.655 | 0.611 | 0.271 | 0.632 | 0.843 | 1.01 | 1.14 | 1.19 | 1.04 | 0.645 | 0.683 | 0.689 | 0.604
16 | NCI-H1755 | 0.445 | 0.434 | 0.391 | 0.438 | 0.879 | 0.837 | 0.849 | 0.826 |  | 0.991 | 1.08 | 0.981 | 1.05 | 0.903 | 0.941 | 1.01 | 0.873
17 | NCI-H1792 | 0.319 | 0.279 | 0.287 | 0.285 | 0.305 | 0.383 | 0.0039 | 0.454 | 0.907 | 0.896 | 0.913 | 0.73 | 0.912 | 0.492 | 0.436 | 0.491 | 0.322
